A word on the IC50: it is the concentration that inhibits the measured activity by half. Low readings indicate greater potency, high ones weaker potency.

Here are results for one compound from PMC4407307 (Journal of Biomedical Science, 2015).

The experiment has as its target SHV-128 (Enterobacter cloacae, UniProt D5LIR5). Kind of experiment: biochemical.

SHV-128, sequence (D5LIR5 entry or part of it): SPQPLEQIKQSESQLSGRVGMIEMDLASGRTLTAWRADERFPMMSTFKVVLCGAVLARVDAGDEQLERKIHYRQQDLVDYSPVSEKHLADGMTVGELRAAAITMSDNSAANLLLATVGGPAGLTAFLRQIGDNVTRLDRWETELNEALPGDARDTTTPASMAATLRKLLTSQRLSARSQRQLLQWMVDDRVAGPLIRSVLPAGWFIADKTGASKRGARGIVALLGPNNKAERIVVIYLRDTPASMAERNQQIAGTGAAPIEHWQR

On to `O=C(O)[C@H]1/C(=C/CO)O[C@@H]2CC(=O)N21` [clavulanic acid], for which the IC50 came out at 4.2 µM.
